The numbers were not newly measured in paper PMC8791944, “GLUT3 inhibitor discovery through in silico ligand screening and in vivo validation in eukaryotic expression systems” (Scientific Reports, 2022), which cites them from elsewhere.

For this data set, the system named is GLUT3. The conditions noted are these: read-out: KM of 2-deoxy-glucose for GLUT3; GLUT3 expressed in Xenopus laevis oocytes ref 12; cited from earlier work.

Regarding `O=CC[C@@H](O)[C@H](O)[C@H](O)CO` [2-deoxy-glucose, 2-deoxy-D-glucose], the Km is approximately 1400 µM.

One may read the Km as the concentration of substrate that gives half-maximal velocity.
